What was measured:
[1] = tested on: experimental seizure models; parameters: method as in earlier work; details: acute and chronic experimental seizure models; ref Brown et al., 2001; Vohora et al., 2010; Witkin and Nelson, 2004; Sadek et al., 2015; Bastaki et al., 2018; cited from earlier work
[2] = tested on: photosensitivity seizure model; parameters: method as in Lamb, 2020; details: adult patients; ref Lamb, 2020; cited from earlier work
[3] = tested on: MES-induced seizures in mice; test: Maximal electroshock (MES)-induced seizure, duration of tonic hind limb extension (THLE); assay type: in vivo, C57BL/6J mice
From the text: As previously described and with a slight modification in the intensity applied, seizures were elicited in mice with a 50-Hz alternating current of 120 mA intensity ([Kaminski et al., 2015]; [Song et al., 2020]; [Xiao et al., 2021]; [Hua et al., 2023]). The current was applied through ear electrodes for 0.2 s. Protection against the spread of MES-induced convulsion was defined as the abolition of the tonic hind limb extension (THLE) component of the seizure ([Kaminski et al., 2015]; [Song et al., 2020]; [Xiao et al., 2021]; [Hua et al., 2023]). The animals were divided into the following experimental groups, with eight mice in each: the control group injected with saline, the positive control group injected with 300 mg/kg of VPA (the minimal dose of VPA that protected animals against the spread of MES-induced convulsions without mortality in mice) ([Sadek et al., 2015]; [Bastaki et al., 2018]), and four groups that were administered the test compound DL76 at doses of 7.5 mg/kg, 15 mg/kg, 30 mg/kg, or 60 mg/kg. All drugs were administered 30–45 min before the MES challenge. In a further group of eight mice, the most promising and protective dose of DL76 (60 mg/kg, i.p.) was co-injected with RAM (10 mg/kg, i.p.), 30 min apart and 15 min prior to the MES test. Protection against the spread of MES-induced convulsion was defined as the abolition of the THLE component of the convulsion ([Sadek et al., 2015]; [Alachkar et al., 2018]; [Bastaki et al., 2018]).
Statistical analyses employed SPSS 26.0 (IBM Middle East, Dubai, UAE). Data were presented as means ± SEM. […] Fetal abnormality data were presented as counts and percentages. Fisher’s exact test compared the percentages of abnormalities between the control group (saline) and the different dose groups. All tests were two-tailed, and significance was set at p < 0.05.

[4] = tested on: MES-induced seizures in mice; parameters: method as in Sadek et al., 2015; Bastaki et al., 2018; details: ref Sadek et al., 2015, Bastaki et al., 2018; cited from earlier work
C57BL/6 mice = tested on: C57BL/6 mice; parameters: method as in Chateauvieux et al., 2010; details: ref Chateauvieux et al., 2010; cited from earlier work

CCC(C)(C)c1ccc(OCCCN2CCCCC2)cc1 [DL77]
anticonvulsant efficacy [1]: anticonvulsant efficacy

Clc1ccc(CCCOCCCN2CCCCC2)cc1 [PIT]
effects against the photosensitivity seizure model [2]: protective effects

C[C@@H](N)Cc1c[nH]cn1 [RAM, (R)-α-methylhistamine, reference compound]
effect of RAM alone on MES-induced convulsions ([3]; female adult mice, RAM 10 mg/kg i.p., p = 0.91 saline-saline vs. saline-RAM): results similar to those witnessed in male adult mice | effect on MES-induced convulsions when injected alone ([3]; male adult mice, RAM 10 mg/kg i.p., p = 0.602): did not affect MES-induced convulsions | activity of RAM injected alone in MES-induced convulsion ([3]; mice, both sexes, RAM 10 mg/kg): neither a protective nor an epileptogenic activity

CCCC(CCC)C(=O)O [VPA, valproic acid, reference compound]
difference of protective effects between male and female mice ([3]; VPA 300 mg/kg i.p., p = 0.164): no significant differences | protection against MES-induced convulsions ([3]; female adult mice, VPA 300 mg/kg i.p.): significantly protected | minimal dose that protected animals against the spread of MES-induced convulsions without mortality [4]: 300 mg/kg | malformations (C57BL/6 mice): induce malformations

S=C(NC1CCCCC1)N1CCC(c2cnc[nH]2)CC1 [thioperamide]
anticonvulsant efficacy [1]: anticonvulsant efficacy
